Experimental data taken from US9242929B2, “Compounds as diacylglycerol acyltransferase inhibitors” (GlaxoSmithKline Intellectual Property (No.2) Limited, priority 2011, dated 2016).

Biological target: T1, Human DGAT1 (Homo sapiens, UniProt O75907)
T1 construct: made in house; host or cells: Sf9 insect cells (baculovirus), microsomes
T1 sequence (O75907 1-488): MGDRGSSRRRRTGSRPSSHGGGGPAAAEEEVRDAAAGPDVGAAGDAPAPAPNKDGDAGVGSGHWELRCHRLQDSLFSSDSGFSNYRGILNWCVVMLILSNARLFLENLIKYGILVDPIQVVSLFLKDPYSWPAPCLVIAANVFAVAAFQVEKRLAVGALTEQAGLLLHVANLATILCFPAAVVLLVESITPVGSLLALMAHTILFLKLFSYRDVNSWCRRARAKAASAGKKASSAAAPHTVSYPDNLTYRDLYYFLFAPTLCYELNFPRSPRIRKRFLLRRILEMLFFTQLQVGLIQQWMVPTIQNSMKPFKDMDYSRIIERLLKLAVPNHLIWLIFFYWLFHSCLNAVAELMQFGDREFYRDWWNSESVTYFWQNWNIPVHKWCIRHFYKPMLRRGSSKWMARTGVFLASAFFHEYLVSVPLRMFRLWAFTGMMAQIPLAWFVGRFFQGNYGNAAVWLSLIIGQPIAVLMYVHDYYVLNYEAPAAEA
Test: human DGAT1 fluorescence (CPM) assay, inhibition of CoA product formation
Type: biochemical
Conditions: human DGAT1 fluorescene (CPM) assay; microsomes from Sf9 insect cells; read-out: hDGAT IC50
Procedure: Human DGAT1 was expressed in Sf9 insect cells using a baculovirus expression system. Microsomes were prepared and used as enzyme for in vitro inhibition testing in either of two formats measuring production of coenzyme A or tridecanoylglycerol product, respectively. All steps were performed at 21-23° C. All data for DGAT1 inhibition by test compounds were collected under conditions where product formation was linear with reaction time.
An equal volume (10 uL) of 3× enzyme in buffer was added and the components incubated for 30 minutes pre-reaction incubation to allow enzyme and test compounds to attain binding equilibrium. […] Some assays were performed with inclusion of didecanoylglycerol in the pre-reaction incubation of test compound and enzyme. DGAT reactions (30 uL) were initiated upon addition of 10 uL of 3× substrate solution. Final reaction conditions consisted of 20 mM HEPES pH 7.5, 2 mM MgCl2, 1 mM CHAPS, 50 uM didecanoylglycerol, 3 uM decanoyl-CoA, 1 ug/mL microsomal protein, and 1% DMSO. Following a 60 minute reaction incubation, reactions were stopped and CoA product derivatized with 30 uL of buffer containing 10 uM {4-[4-(4-amino-7,7-dimethyl-7H-pyrimido[4,5-b][1,4]oxazin-6-yl)phenyl]cyclohexyl}acetic acid and 50 uM 7-diethylamino-3-(4′-maleimidylphenyl)-4-methylcoumarin (CPM). […] IC50s were fitted using GraphPad Prism to a sigmoidal dose response.

| IC50 [nM] | SMILES |
| --- | --- |
| 10.8 | CCC1(CC(=O)O)CCc2cc(-c3ccc(NC(=O)Nc4cccc(Cl)c4)cc3Cl)ccc2C1=O (stereo not drawn) [Example 139] |
| 2.8 | O=C(O)CC1(CC(F)(F)F)CCc2cc(-c3ccc(NC(=O)Nc4cc(Cl)cc(Cl)c4)cc3)ccc2C1=O (stereo not drawn) [Example 224] |
| 2.3 | COCC1(CC(=O)O)CCc2cc(-c3ccc(NC(=O)Nc4cccc(C(F)(F)F)c4)cc3)ccc2C1=O (stereo not drawn) [Example 197, 2-[2-(methoxymethyl)-1-oxo-6-[4-({[3-(trifluoromethyl)phenyl]carbamoyl}amino)phenyl]-1,2,3,4-tetrahydronaphthalen-2-yl]acetic acid] |
